pIC50: −log10 of the molar value.
Key:
LNcap cells = experiment: Inhibitory effect on proliferation of LNcap cells (CCK-8, 72 h); assay type: cell-based; conditions: Homo sapiens, LNcap cells, CCK-8, read-out: LNcap cells IC50
Procedure: A dish of LNcap cells (human prostate cancer cells with PTEN deficiency) growing at log phase and in good conditions were taken and digested for 3 min by using 1 mL of pancreatin, then the mixture was added with 4 mL of complete culture medium to terminate digestion, and the cells were added to a centrifuge tube. 20 μL of cells were taken and counted, the required number of cells (mL) was pipetted and centrifuged at 1200 rpm for 5 min, the supernatant was discarded, and an appropriate amount of plating medium (RPMI medium+5% FBS+1% sodium pyruvate+1% glutamine) was added to adjust the cell density to 3×10^4 cells/mL. The cells were seeded on a 96-well plate at 100 μL/well using a multi-channel pipette and cultured in a cell incubator at 37° C., 5% CO2 and saturated humidity. After incubation overnight, compounds were loaded using a nanoliter pipettor, 2 duplicate wells were set for each concentration, and cells without compound were used as negative controls. After 72 h, CCK-8 was added at 10 μL/well for incubation for 4 h, then absorbance was measured at 450 nm with an Envision plate reader, and inhibition rate was calculated. Inhibition rate (%)=(mean value of negative control group−mean value of experimental group)/(mean value of negative control group−mean value of blank group)×100%. A dose-response curve was fitted by four-parameter analysis, with the logarithm of compound concentration as abscissa and inhibition rate as ordinate, so that IC50 was calculated.

AKT1 (S473) = molecular target: T1, AKT1 (S473) (Homo sapiens, UniProt P31749); experiment: Inhibitory effect on phosphorylation of LNcap cells AKT1 (S473); assay type: cell-based; conditions: 1 h incubation
T1 construct: endogenous in cells; host or cells: LNcap cells
Procedure: LNcap cells AKT1 (S473) growing at log phase were taken, digested with 1 mL of pancreatin for 3 min, and added with 4 mL of complete medium to terminate digestion. The cells were added to a centrifuge tube. 20 μL of cells were taken and counted, the required number of cells (mL) was taken and centrifuged at 1200 rpm for 5 min, and a plating medium (2% FBS+phenol-free red 1640 base medium+1% sodium pyruvate+1% glutamine) was added to adjust the cell density to about 1×10E6 cells/mL. The cells were plated (96 wells) at the above cell density (100 μL/well), and cultured in a cell incubator at 37° C., 5% CO2 overnight; the next day, according to the plate distribution, the corresponding compound was sprayed using a nanoliter pipettor and incubated for 1 h at 37° C. in a cell incubator containing 5% CO2; the supernatant was discarded, and the plate was added with 40 μL of lysis buffer (1×) containing blocking buffer and incubated by shaking at room temperature for 30 min. After the mixture was mixed, 16 μL of lysate was transferred to another 384-well small-volume white plate. The plate was added with 4 μL of pre-mixed antibody (v/v) in assay buffer, covered, centrifuged to mix well, and incubated overnight at room temperature. The 665 nm/620 nm signal value was detected using a PE Envision multi-functional microplate reader, and IC50 was calculated by four-parameter fitting.

T1 sequence (P31749 whole entry): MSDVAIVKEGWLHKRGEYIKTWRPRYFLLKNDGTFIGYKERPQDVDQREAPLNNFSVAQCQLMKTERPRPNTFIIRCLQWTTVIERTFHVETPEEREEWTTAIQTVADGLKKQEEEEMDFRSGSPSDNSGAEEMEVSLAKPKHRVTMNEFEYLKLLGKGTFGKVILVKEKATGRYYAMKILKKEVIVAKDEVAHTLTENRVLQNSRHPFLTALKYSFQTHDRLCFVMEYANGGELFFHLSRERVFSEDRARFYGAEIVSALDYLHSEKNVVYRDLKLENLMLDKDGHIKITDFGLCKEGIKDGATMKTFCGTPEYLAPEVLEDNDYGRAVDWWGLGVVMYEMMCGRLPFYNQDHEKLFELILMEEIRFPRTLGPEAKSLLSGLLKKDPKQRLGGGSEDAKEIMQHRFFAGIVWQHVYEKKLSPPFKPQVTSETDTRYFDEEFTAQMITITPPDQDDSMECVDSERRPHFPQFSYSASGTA

| Compound | pIC50 (LNcap cells) | pIC50 (AKT1 (S473)) |
| --- | --- | --- |
| CC(=O)N1CC2(C1)CN(c1cccc(-c3ccc4nc(-c5cccnc5N)n(-c5ccc(C6(N)CCC6)cc5)c4n3)c1F)C2 [Compound 28] | 8.52 | 7.55 |
| Nc1ncccc1-c1nc2ccc(-c3cccc(N4CCC(N5CCCC5=O)CC4)c3F)nc2n1-c1ccc(C2(N)CCC2)cc1 [Compound 30] | 8.32 | 7.66 |
